Here are results for seven compounds from patent US11918592B2, “Inhibitors of cyclin dependent kinase 7 (CDK7)” (Syros Pharmaceuticals, Inc., priority 2018, dated 2024).

pIC50: −log10 of the molar value. Like-named read-outs stand apart in the source and are kept apart here. Bounds are passed on as bounds.

Assay [1] has as its target CDK7/Cyclin H/MAT1 complex (Homo sapiens, UniProt P50613). Put plainly: CDK7 kinase inhibition assay (Caliper/LabChip EZ Reader).
Protocol: (§2) Compounds of the invention were assayed for inhibition of CDK7, CDK9, CDK12, and CDK2 activity at Biortus Biosciences (Jiangyin, Jiangsu Province, P.R. of China) using kinase assays for each CDK developed with a Caliper/LabChip EZ Reader (Perkin Elmer, Waltham, MA).
(§3) Furthermore, the CDK9 inhibition assay used CDK9/Cyclin T1 complex (8 nM) and “5-FAM-CDK9tide” peptide substrate (2 μM, synthesized fluorophore-labeled peptide with the following sequence: 5-FAM-GSRTPMY-NH2 (SEQ ID NO:2) where 5-FAM is defined above and NH2 signifies a C-terminal amide) with 10 mM MgCl2 in the buffer composition listed above. The CDK12 inhibition assay used CDK12 (aa686-1082)/Cyclin K complex (50 nM) and “5-FAM-CDK9tide” (2 μM) as defined above, with 2 mM MgCl2 in the buffer composition above. Additionally, the CDK2 inhibition assay used CDK2/Cyclin E1 complex (0.5 nM) and “5-FAM-CDK7tide” (2 μM) as defined above, with 2 mM MgCl2 in the buffer composition listed above.
(§4) The incubation period at 27° C. for each CDK inhibition assay was chosen such that the fraction of phosphorylated peptide product produced in each assay, relative to the total peptide concentration, was approximately 20% (±5%) for the uninhibited kinase (35 min. for CDK7, 35 min. for CDK2, 3 hr. for CDK12, 15 min. for CDK9).
The target in assay [2] is CDK2/Cyclin E1 complex (Homo sapiens, UniProt P24941). Put plainly: CDK2 kinase inhibition assay (Caliper/LabChip EZ Reader).
Protocol: as §2, §3, §4
Assay [3] relates to MB453 cells. Put plainly: Inhibition of cell proliferation, CyQUANT Direct, MB453. The class given is cell-based, human. As to conditions: Homo sapiens, read-out: MB 453 proliferation calculated IC50. Here is the method: (§1) HCC70 and MB453 cells are cell lines derived from human triple negative breast cancer. COV318 and COV504 cells are cell lines derived from human ovarian cancer. Representative compounds of the invention were tested at different concentrations (from 4 μM to 126.4 pM; 0.5 log serial dilutions) for their ability to inhibit the proliferation of each of these cell lines. Known CDK inhibitors dinaciclib or N-((1S,3R)-3-((5-chloro-4-(1H-indol-3-yl) pyrimidin-2-yl)amino)cyclohexyl)-5-((E)-4-(dimethylamino)but-2-enamido)picolinamide and triptolide were used as positive controls. Cells were seeded at approximately 2,000 cells/well and grown in ATCC-formulated RPMI-1640 Medium (ATCC 30-2001)+10% FBS. The cells were cultured at 37° C. in a humidified chamber in the presence of 5% CO2. Proliferation assays were conducted over a 72-hour time period. CyQUANT® Direct Cell Proliferation Assay (Life Technologies, Chicago, IL USA) was used to assess the anti-proliferative effects of the compounds following manufacturer's directions and utilizing the reagents supplied with the CyQUANT® Direct Cell kit.

The subject of assay [4] is HCC70 cells. Put plainly: Inhibition of cell proliferation, CyQUANT Direct, HCC70. Type of assay: cell-based, human. As to conditions: Homo sapiens, read-out: HCC 70 proliferation calculated IC50. Here is the method:
as §1

Assay [5] relates to COV504 cells. Put plainly: Inhibition of cell proliferation, CyQUANT Direct, COV504. The note with it: Homo sapiens; COV504 ovarian cancer cells, 72-hour; read-out: COV 504 proliferation calculated IC50. Type of assay: cell-based. Here is the method: as §1
The test system of assay [6] is COV318 cells. Put plainly: Inhibition of cell proliferation, CyQUANT Direct, COV318. The note with it: Homo sapiens; COV318 ovarian cancer cells, 72-hour; read-out: COV 318 proliferation calculated IC50. The class given is cell-based. How it is done: as §1
Assay [7] has as its target CDK12 (aa686-1082)/Cyclin K complex (Homo sapiens, UniProt Q9NYV4). Put plainly: CDK12 kinase inhibition assay (Caliper/LabChip EZ Reader).
Protocol: as §2, §3, §4
For assay [8], the target named is CDK9/Cyclin T1 complex (Homo sapiens, UniProt P50750). Put plainly: CDK9 kinase inhibition assay (Caliper/LabChip EZ Reader).
Protocol: as §2, §3, §4
Setting [9] is: MB453 triple negative breast cancer cells, 72-hour.
[10] abbreviates: HCC70 triple negative breast cancer cells, 72-hour.

Sequence of CDK9/Cyclin T1 complex (P50750 whole entry): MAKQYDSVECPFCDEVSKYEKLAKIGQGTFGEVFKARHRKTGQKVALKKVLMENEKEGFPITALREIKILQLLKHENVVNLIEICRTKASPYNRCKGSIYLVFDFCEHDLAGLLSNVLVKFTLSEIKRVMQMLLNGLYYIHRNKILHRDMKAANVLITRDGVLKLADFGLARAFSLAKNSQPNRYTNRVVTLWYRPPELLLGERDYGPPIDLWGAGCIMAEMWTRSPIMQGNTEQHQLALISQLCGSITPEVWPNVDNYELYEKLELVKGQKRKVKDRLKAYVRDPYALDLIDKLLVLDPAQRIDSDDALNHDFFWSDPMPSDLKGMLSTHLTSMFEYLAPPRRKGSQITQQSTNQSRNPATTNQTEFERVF
Sequence of CDK9/Cyclin T1 complex (O60563 whole entry partner): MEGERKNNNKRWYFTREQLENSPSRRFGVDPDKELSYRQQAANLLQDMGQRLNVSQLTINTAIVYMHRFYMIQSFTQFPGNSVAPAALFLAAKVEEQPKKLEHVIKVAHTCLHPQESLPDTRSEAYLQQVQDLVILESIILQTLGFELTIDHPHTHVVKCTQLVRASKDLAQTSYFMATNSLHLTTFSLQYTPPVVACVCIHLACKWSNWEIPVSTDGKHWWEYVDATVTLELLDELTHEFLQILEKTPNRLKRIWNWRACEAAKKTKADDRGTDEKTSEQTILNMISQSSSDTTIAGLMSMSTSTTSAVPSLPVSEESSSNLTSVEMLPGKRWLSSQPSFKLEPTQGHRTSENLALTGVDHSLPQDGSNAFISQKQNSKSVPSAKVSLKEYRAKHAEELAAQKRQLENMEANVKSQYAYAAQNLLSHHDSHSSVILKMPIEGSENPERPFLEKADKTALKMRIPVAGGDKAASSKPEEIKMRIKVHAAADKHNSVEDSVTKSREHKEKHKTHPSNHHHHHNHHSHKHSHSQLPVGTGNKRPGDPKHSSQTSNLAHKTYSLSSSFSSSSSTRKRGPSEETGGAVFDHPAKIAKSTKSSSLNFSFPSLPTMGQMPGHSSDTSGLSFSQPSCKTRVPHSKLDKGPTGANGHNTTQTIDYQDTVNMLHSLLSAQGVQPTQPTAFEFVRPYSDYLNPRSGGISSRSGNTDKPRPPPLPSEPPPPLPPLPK
Sequence of CDK7/Cyclin H/MAT1 complex (P50613 whole entry): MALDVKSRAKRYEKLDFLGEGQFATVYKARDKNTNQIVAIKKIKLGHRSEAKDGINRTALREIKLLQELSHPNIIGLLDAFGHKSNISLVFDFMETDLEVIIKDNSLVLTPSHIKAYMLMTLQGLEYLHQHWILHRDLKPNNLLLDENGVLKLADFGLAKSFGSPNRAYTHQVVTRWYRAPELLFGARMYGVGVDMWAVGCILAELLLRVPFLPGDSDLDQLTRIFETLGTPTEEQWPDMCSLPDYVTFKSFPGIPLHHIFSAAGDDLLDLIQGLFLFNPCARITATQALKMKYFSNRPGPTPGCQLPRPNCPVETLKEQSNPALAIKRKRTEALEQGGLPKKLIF
Sequence of CDK7/Cyclin H/MAT1 complex (P51946 whole entry partner): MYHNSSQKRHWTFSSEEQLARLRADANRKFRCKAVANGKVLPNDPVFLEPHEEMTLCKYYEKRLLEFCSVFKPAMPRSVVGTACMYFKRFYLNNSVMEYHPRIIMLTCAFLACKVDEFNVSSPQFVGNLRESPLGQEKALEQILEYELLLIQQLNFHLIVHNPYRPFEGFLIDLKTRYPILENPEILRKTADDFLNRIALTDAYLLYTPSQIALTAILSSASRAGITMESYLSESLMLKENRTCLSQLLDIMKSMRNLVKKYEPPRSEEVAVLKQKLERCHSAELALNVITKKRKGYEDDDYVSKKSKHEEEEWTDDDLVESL
Sequence of CDK7/Cyclin H/MAT1 complex (P51948 whole entry partner): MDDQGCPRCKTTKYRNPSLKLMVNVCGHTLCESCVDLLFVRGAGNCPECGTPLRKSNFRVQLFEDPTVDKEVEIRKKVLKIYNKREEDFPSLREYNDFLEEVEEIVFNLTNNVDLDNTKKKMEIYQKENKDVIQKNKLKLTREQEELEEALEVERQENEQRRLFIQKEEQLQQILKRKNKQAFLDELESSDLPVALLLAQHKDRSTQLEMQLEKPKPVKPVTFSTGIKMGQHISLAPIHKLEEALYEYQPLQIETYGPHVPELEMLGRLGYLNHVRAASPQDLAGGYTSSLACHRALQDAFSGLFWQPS
Sequence of CDK12 (aa686-1082)/Cyclin K complex (Q9NYV4 686-1082): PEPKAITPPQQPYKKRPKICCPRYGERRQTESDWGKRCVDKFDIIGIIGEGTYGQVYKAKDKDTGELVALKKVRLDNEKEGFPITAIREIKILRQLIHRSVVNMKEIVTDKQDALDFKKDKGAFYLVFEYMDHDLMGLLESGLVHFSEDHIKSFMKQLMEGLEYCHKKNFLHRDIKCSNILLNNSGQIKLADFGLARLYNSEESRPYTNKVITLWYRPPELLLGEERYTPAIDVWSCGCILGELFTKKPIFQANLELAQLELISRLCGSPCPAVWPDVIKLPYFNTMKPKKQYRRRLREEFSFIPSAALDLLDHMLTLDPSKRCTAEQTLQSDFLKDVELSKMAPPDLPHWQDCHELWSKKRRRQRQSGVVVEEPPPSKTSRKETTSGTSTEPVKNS
Sequence of CDK12 (aa686-1082)/Cyclin K complex (O75909 whole entry partner, the tested form may be a part): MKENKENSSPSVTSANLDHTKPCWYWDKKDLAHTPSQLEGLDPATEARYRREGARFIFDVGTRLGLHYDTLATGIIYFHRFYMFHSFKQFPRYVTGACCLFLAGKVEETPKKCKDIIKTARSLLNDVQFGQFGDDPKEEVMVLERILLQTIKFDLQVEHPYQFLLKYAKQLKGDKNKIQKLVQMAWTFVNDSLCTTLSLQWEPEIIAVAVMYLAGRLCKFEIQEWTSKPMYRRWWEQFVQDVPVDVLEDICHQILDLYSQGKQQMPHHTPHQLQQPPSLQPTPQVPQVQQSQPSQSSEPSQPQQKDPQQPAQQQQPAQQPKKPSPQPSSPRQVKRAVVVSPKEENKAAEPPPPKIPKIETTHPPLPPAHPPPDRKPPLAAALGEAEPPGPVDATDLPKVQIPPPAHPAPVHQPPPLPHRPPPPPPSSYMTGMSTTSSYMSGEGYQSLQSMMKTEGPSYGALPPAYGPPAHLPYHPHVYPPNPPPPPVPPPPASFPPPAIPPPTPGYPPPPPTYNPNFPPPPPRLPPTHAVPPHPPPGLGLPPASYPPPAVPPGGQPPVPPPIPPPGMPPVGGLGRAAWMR

Take `Cc1noc(C)c1-c1ccc2c(-c3nc(N[C@H]4CCC[C@@H]4NCCO)ncc3C(F)(F)F)c[nH]c2n1` [Compound 154, 2-[[(1S,2S)-2-[[4-[6-(3,5-dimethylisoxazol-4-yl)-1H-pyrrolo [2,3-b]pyridin-3-yl]-5-(trifluoromethyl)pyrimidin-2-yl]amino]cyclopentyl]amino]ethanol]: the pIC50 in assay [1] was greater than 7.52; in assay [2], less than 6.30; in assay [3] (setting [9]), greater than 7.00; in assay [4] (setting [10]), greater than 7.00; in assay [5], greater than 7.00; in assay [6], 6.30 to 7.00. The pIC50 in assay [7] and in assay [8] was less than 6.30 throughout.

As to `Cc1nsc(-c2ccc3c(-c4nc(N[C@H]5CCC[C@@H]5N)ncc4C(F)(F)F)c[nH]c3n2)n1` [Compound 158, (1S,2S)—N1-[4-[6-(3-methyl-1,2,4-thiadiazol-5-yl)-1H-pyrrolo [2,3-b]pyridin-3-yl]-5-(trifluoromethyl)pyrimidin-2-yl]cyclopentane-1,2-diamine], the pIC50 was greater than 7.52 in assay [1]; less than 6.30 in assay [2]; 5.70 to 6.30 in assay [3] (setting [9]); 5.70 to 6.30 in assay [4] (setting [10]); less than 5.70 in assay [5]; less than 5.70 in assay [6]. For the same compound, the pIC50 in assay [7] and in assay [8] was less than 6.30 each time.

`N#Cc1ccc2c(-c3nc(N[C@H]4CNC[C@@H]4c4ccc(Cl)cc4)ncc3C(F)(F)F)c[nH]c2c1` (relative stereo) [Compound 113]: the pIC50 in assay [1] was less than 6.30; in assay [2], less than 6.30; in assay [3] (setting [9]), less than 5.70; in assay [4] (setting [10]) it was less than 5.70; in assay [5], 5.70 to 6.30; in assay [6], less than 5.70. Further, the pIC50 in assay [7] and in assay [8] was less than 6.30 throughout.

For the compound `Cc1noc(C)c1-c1ccc2c(-c3nc(N[C@H]4CCC[C@H]4N4CC(F)C4)ncc3C(F)(F)F)c[nH]c2n1` [Compound 156, 4-[6-(3,5-dimethylisoxazol-4-yl)-1H-pyrrolo [2,3-b]pyridin-3-yl]-N-[(1S, 2R)-2-(3-fluoroazetidin-1-yl)cyclopentyl]-5-(trifluoromethyl) pyrimidin-2-amine], the pIC50 in assay [1] was greater than 7.52; in assay [2] it was less than 6.30; in assay [3] (setting [9]) it was 5.70 to 6.30; in assay [4] (setting [10]), 6.30 to 7.00; in assay [5], 6.30 to 7.00; in assay [6], less than 5.70. Further, the pIC50 in assay [7] and in assay [8] was less than 6.30 throughout.

Consider `CC(C)N1CC[C@H](Nc2ncc(C(F)(F)F)c(-c3c[nH]c4cc(C#N)ccc34)n2)C1` [Compound 105], for which the pIC50 in assay [1] was less than 6.30; in assay [2] it was less than 6.30; in assay [3] (setting [9]), less than 5.70; in assay [4] (setting [10]), less than 5.70; in assay [5], less than 5.70; in assay [6], less than 5.70. Also, the pIC50 in assay [7] and in assay [8] was less than 6.30 throughout.

Consider `Cc1noc(C)c1-c1ccc2c(-c3nc(N[C@H]4C[C@H]5CC[C@@H]4N5)ncc3C(F)(F)F)c[nH]c2n1` [Compound 139], for which the pIC50 is greater than 7.52 in assay [1]; less than 6.30 in assay [2]; 6.30 to 7.00 in assay [3] (setting [9]); 6.30 to 7.00 in assay [4] (setting [10]); 6.30 to 7.00 in assay [5]; 5.70 to 6.30 in assay [6]. Moreover, the pIC50 in assay [7] and in assay [8] was less than 6.30 throughout.

Turning to `CCN[C@H]1CCC[C@@H]1Nc1ncc(C(F)(F)F)c(-c2c[nH]c3nc(-c4c(C)noc4C)ccc23)n1` [Compound 145, (1S, 2S)—N1-[4-[6-(3,5-dimethylisoxazol-4-yl)-1H-pyrrolo [2,3-b]pyridin-3-yl]-5-(trifluoromethyl)pyrimidin-2-yl]-N2-ethyl-cyclopentane-1,2-diamine], the pIC50 in assay [1] is greater than 7.52; in assay [2] it was less than 6.30; in assay [3] (72 h) it was greater than 7.00; in assay [4] (HCC70, 72 h), greater than 7.00; in assay [5] it was greater than 7.00; in assay [6], greater than 7.00. The pIC50 in assay [7] and in assay [8] was less than 6.30 each time.
